In one series the target is T1, human IDO1/HEK293 cells (Homo sapiens, UniProt P14902).
T1 construct: expressed in transfected cells
As to the kind of experiment: HEK Human IDO-1 cell-based IDO inhibition assay (kynurenine production). The conditions noted are these: HEK293 cells stably expressing human IDO1, 20 hours incubation, absorbance at 490 nm; read-out: HEK Human IDO-1 Bio Activity (IDO IC50). A digest of the protocol:
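Stopped with 0.2% TCA, 50 °C 30 min; supernatant mixed with 0.2% Ehrlich reagent, 30 min RT, kynurenine read as absorbance at 490 nm.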

T1 sequence (P14902 whole entry): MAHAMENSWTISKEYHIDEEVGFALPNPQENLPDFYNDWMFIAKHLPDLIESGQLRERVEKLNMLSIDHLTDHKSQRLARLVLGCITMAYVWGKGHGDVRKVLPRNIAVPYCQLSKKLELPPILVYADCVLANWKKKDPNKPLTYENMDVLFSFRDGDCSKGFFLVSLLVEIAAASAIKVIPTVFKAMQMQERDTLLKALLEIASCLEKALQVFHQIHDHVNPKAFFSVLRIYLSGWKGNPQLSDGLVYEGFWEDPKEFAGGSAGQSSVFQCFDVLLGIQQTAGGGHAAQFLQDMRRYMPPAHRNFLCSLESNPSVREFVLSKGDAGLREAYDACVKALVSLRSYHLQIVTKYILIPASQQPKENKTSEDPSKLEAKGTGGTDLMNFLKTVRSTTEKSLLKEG

By IC50 is commonly meant the concentration that gives 50% inhibition. Usually melting point stands for the temperature of the solid-liquid transition. Regarding `O=C(NCC1(O)CCN(c2ccnc3ccc(F)cc23)CC1)c1ccc(Cl)cc1` [Example 81, 4-Chloro-N-((1-(6-fluoroquinolin-4-yl)-4-hydroxypiperidin-4-yl)methyl)benzamide], the melting point fell in the range of 91 to 94 °C. The IC50 on human IDO1/HEK293 cells was below 2000 nM.
As to `CCC(NC(=O)c1ccc(-n2cccc2)cc1)[C@H]1CC[C@@H](c2ccnc3ccc(C(F)(F)F)cc32)CC1` (stereo partly drawn) [Example 255, 4-(1H-pyrrol-1-yl)-N-(1-((1s, 4s)-4-(6-(trifluoromethyl)quinolin-4-yl)cyclohexyl)propyl)benzamide], at human IDO1/HEK293 cells, the IC50 was below 50 nM.
Still for that read-out and setting: under `CCC(NC(=O)c1ccc(OC)nc1)[C@H]1CC[C@@H](c2ccnc3ccc(C(F)(F)F)cc32)CC1` (stereo partly drawn) [Example 256, 6-methoxy-N-(1-((1s, 4S)-4-(6-(trifluoromethyl)quinolin-4-yl)cyclohexyl)propyl)nicotinamide] stands below 50 nM; under `CCC(NC(=O)c1ccc(-c2ccccc2)cc1)C1CCC(c2ccnc3ccc(F)cc23)CC1` (stereo not drawn) [Example 258, N-(1-(4-(6-fluoroquinolin-4-yl)cyclohexyl)propyl)bi-phenyl-4-carboxamide], below 50 nM.
Take “(R)-1-(cis-4-(6-fluoroquinolin-4-yl)cyclohexyl)-N-methylethanamine [Example 194]”: the IC50 on human IDO1/HEK293 cells was below 50 nM.
